Some results are limits rather than exact numbers.

T1 sequence (Q8NDF8 68-698 isoform Q8NDF8-5 limits assumed): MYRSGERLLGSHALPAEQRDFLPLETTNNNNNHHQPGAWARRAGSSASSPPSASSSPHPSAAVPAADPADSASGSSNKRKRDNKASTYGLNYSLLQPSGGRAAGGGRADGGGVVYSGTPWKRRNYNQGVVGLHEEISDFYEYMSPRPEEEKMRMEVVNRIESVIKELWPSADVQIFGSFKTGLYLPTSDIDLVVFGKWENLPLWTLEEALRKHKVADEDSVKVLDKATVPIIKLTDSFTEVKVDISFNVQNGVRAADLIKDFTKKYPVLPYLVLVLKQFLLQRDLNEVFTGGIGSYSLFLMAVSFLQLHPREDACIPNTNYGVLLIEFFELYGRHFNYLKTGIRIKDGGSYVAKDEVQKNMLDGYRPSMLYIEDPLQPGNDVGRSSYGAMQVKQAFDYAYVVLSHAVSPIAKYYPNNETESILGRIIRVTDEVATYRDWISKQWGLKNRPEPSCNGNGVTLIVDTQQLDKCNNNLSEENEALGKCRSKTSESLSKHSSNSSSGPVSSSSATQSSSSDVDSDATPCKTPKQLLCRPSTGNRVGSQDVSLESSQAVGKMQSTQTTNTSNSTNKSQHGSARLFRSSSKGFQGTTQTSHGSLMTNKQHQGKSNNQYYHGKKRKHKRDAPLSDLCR

The first assay concerns the target T1, rPAPD5 (Homo sapiens, UniProt Q8NDF8).
T1 construct: made in house
Put plainly: differential scanning fluorimetry (DSF) binding and stabilization of rPAPD5. The settings on record: 10 μM test compound; shift vs DMSO control; read-out: ΔTm (Table 2, starred: the compound was tested at 10 μM). The protocol: Binding and stabilization of rPAPD5 by test compounds was determined using differential scanning fluorimetry (DSF). DSF assays were performed to determine protein melting temperature using an indicator dye SYPRO orange (Thermo Fisher Scientific, S6651) diluted 1:5000 in […] of buffer containing […], […] (Jena Biosciences), 25 mM Tris-HCl, 5 mM MgCl2, 50 mM KCl. […] DMSO was used as a negative control. Each curve was an average of three measurements and Thermal Shift software (Thermo Fisher Scientific, 4466038) was used for analysis. […] The change in melting temperature (ΔTm) is in reference to the DMSO control. Referring to Table 2, “+” refers to ΔTm values below 1° C., “++” refers to ΔTm values from 1 to 5° C., and “+++” refers to ΔTm values above 5° C.
(In general: Differential scanning fluorimetry follows unfolding on heating by fluorescence.)
For `Cc1cc(OCc2ccccc2)ccc1-c1ccc2ncc(S(=O)(=O)N3CCOCC3)c(Nc3ccccc3C(=O)O)c2c1` [Compound 176A, 2-[[6-(4-benzyloxy-2-methyl-phenyl)-3-morpholinosulfonyl-4-quinolyl]amino]benzoic acid], the ΔTm at 10 µM is under 1 °C.

The assay is the same for the next values; noted with them: 100 μM test compound; shift vs DMSO control; read-out: ΔTm at 100 μM.
Regarding `Cc1cc(OC(C)C)ncc1-c1ccc2ncc(S(=O)(=O)N3CCOCC3)c(Nc3ccccc3C(=O)O)c2c1` [Compound 161A, 2-[[6-(6-isopropoxy-4-methyl-3-pyridyl)-3-morpholinosulfonyl-4-quinolyl]amino] benzoic acid], the thermal shift (ΔTm) at 100 µM was under 1 °C.
Consider `O=C(O)c1ccccc1Nc1c(S(=O)(=O)N2CCOCC2)cnc2ccc(-c3ccc(Oc4ccccc4)nc3)cc12` [Compound 162A, 2-[[3-morpholinosulfonyl-6-(6-phenoxy-3-pyridyl)-4-quinolyl]amino]benzoic acid], for which the ΔTm at 100 µM is 1 to 5 °C.
Regarding `O=C(O)c1ccccc1Nc1c(S(=O)(=O)N2CCOCC2)cnc2ccc(-c3ccc(N4CCOCC4)nc3)cc12` [Compound 163A, 2-[[6-(6-morpholino-3-pyridyl)-3-morpholinosulfonyl-4-quinolyl]amino]benzoic acid], the shift in melting temperature (ΔTm) at 100 µM was 1 to 5 °C.
As to `N#Cc1ccc(-c2ccc3ncc(S(=O)(=O)N4CCOCC4)c(Nc4ccccc4C(=O)O)c3c2)cn1` [Compound 164A, 2-[[6-(6-cyano-3-pyridyl)-3-morpholinosulfonyl-4-quinolyl]amino]benzoic acid], the ΔTm at 100 µM was 1 to 5 °C.
Same read-out and setting: as for `CN1CCN(c2ccc(-c3ccc4ncc(S(=O)(=O)N5CCOCC5)c(Nc5ccccc5C(=O)O)c4c3)cn2)CC1` [Compound 165A, 2-[[6-[6-(4-methylpiperazin-1-yl)-3-pyridyl]-3-morpholinosulfonyl-4-quinolyl]amino]benzoic acid], the figure is 1 to 5 °C; as for `COc1ncc(-c2ccc3ncc(S(=O)(=O)N4CCOCC4)c(Nc4ccccc4C(=O)O)c3c2)cc1N` [Compound 166A, 2-[[6-(5-amino-6-methoxy-3-pyridyl)-3-morpholinosulfonyl-4-quinolyl]amino]benzoic acid], 1 to 5 °C; as for `CNC(=O)c1ccc(-c2ccc3ncc(S(=O)(=O)N4CCOCC4)c(Nc4ccccc4C(=O)O)c3c2)cn1` [Compound 167A, 2-[[6-[6-(methylcarbamoyl)-3-pyridyl]-3-morpholinosulfonyl-4-quinolyl]amino]benzoic acid], under 1 °C.
With `O=C(O)c1ccccc1Nc1c(S(=O)(=O)N2CCOCC2)cnc2ccc(-c3cnccc3C(F)(F)F)cc12` [Compound 168A, 2-[[3-morpholinosulfonyl-6-[4-(trifluoromethyl)-3-pyridyl]-4-quinolyl]amino]benzoic acid], the ΔTm at 100 µM is 1 to 5 °C.
For the compound `O=C(O)c1ccccc1Nc1c(S(=O)(=O)N2CCOCC2)cnc2ccc(-c3ccnc(N4CCNCC4)c3)cc12` [Compound 169A, 2-[[3-morpholinosulfonyl-6-(2-piperazin-1-yl-4-pyridyl)-4-quinolyl]amino]benzoic acid], the ΔTm at 100 µM is under 1 °C.
Still for that read-out and setting: the figure for `O=C1Cc2ccc(-c3ccc4ncc(S(=O)(=O)N5CCOCC5)c(Nc5ccccc5C(=O)O)c4c3)cc2N1` [Compound 170A, 2-[[3-morpholinosulfonyl-6-(2-oxoindolin-6-yl)-4-quinolyl]amino]benzoic acid] is 1 to 5 °C; for `CNc1ncc2cc(-c3ccc4ncc(S(=O)(=O)N5CCOCC5)c(Nc5ccccc5C(=O)O)c4c3)ccc2n1` [Compound 171A, 2-[[6-[2-(methylamino)quinazolin-6-yl]-3-morpholinosulfonyl-4-quinolyl]amino]benzoic acid] it is 1 to 5 °C; for `O=C(O)c1ccccc1Nc1c(S(=O)(=O)N2CCOCC2)cnc2ccc(-c3ccc(S(=O)(=O)N4CCOCC4)cc3)cc12` [Compound 172A, 2-[[3-morpholinosulfonyl-6-(4-morpholinosulfonylphenyl)-4-quinolyl]amino]benzoic acid] it is 1 to 5 °C.
Same read-out and setting: as for `O=C(O)c1ccc(-c2ccc3ncc(S(=O)(=O)N4CCOCC4)c(Nc4ccccc4C(=O)O)c3c2)cc1` [Compound 173A, 2-[[6-(4-carboxyphenyl)-3-morpholinosulfonyl-4-quinolyl]amino]benzoic acid], the figure is 1 to 5 °C; as for `CCN(CC)C(=O)c1ccc(-c2ccc3ncc(S(=O)(=O)N4CCOCC4)c(Nc4ccccc4C(=O)O)c3c2)cc1` [Compound 174A, 2-[[6-[4-(diethylcarbamoyl)phenyl]-3-morpholinosulfonyl-4-quinolyl]amino]benzoic acid], under 1 °C.
With `O=C(O)c1ccccc1Nc1c(S(=O)(=O)N2CCOCC2)cnc2ccc(-c3ccc4c(c3)OCO4)cc12` [Compound 175A, 2-[[6-(1,3-benzodioxol-5-yl)-3-morpholinosulfonyl-4-quinolyl]amino]benzoic acid], the ΔTm at 100 µM is over 5 °C.
As to `Cn1ncc2ccc(-c3ccc4ncc(S(=O)(=O)N5CCOCC5)c(Nc5ccccc5C(=O)O)c4c3)cc21` [Compound 177A, 2-[[6-(1-methylindazol-6-yl)-3-morpholinosulfonyl-4-quinolyl]amino]benzoic acid], the ΔTm at 100 µM lay within 1 to 5 °C.
In the case of `O=C(O)c1ccccc1Nc1c(S(=O)(=O)N2CCOCC2)cnc2ccc(-c3ccc(-n4cccn4)cc3)cc12` [Compound 178A, 2-[[3-morpholinosulfonyl-6-(4-pyrazol-1-ylphenyl)-4-quinolyl]amino]benzoic acid], the ΔTm at 100 µM lay in the range of 1 to 5 °C.
In the case of `CS(=O)(=O)Nc1ccc(-c2ccc3ncc(S(=O)(=O)N4CCOCC4)c(Nc4ccccc4C(=O)O)c3c2)cc1` [Compound 179A, 2-[[6-[4-(methanesulfonamido)phenyl]-3-morpholinosulfonyl-4-quinolyl]amino]benzoic acid], the ΔTm at 100 µM was in the range of 1 to 5 °C.
For the compound `CN1CCN(c2ccc(-c3ccc4ncc(S(=O)(=O)N5CCOCC5)c(Nc5ccccc5C(=O)O)c4c3)cc2)CC1` [Compound 180A, 2-[[6-[4-(4-methylpiperazin-1-yl)phenyl]-3-morpholinosulfonyl-4-quinolyl]amino]benzoic acid], the ΔTm at 100 µM was under 1 °C.
As for `O=C(O)c1ccccc1Nc1c(S(=O)(=O)N2CCOCC2)cnc2ccc(-c3ccc4[nH]cnc4c3)cc12` [Compound 182A, 2-[[6-(1H-benzimidazol-5-yl)-3-morpholinosulfonyl-4-quinolyl]amino]benzoic acid], the ΔTm at 100 µM was 1 to 5 °C.
Consider `O=C(O)c1ccccc1Nc1c(NC2CCOCC2)cnc2ccc(Cl)cc12` [Compound 184A, 2-[[6-chloro-3-(tetrahydropyran-4-ylamino)-4-quinolyl]amino]benzoic acid], for which the ΔTm at 100 µM was over 5 °C.
Turning to `O=C(O)c1ccccc1Nc1c(NC2CCNCC2)cnc2ccc(Cl)cc12` [Compound 186A, 2-[[6-chloro-3-(4-piperidylamino)-4-quinolyl]amino]benzoic acid], the ΔTm at 100 µM was 1 to 5 °C.
The same measure, in the same setting: the figure for `O=C(O)c1ccccc1Nc1c(NC2CCS(=O)(=O)CC2)cnc2ccc(Cl)cc12` [Compound 188A, 2-[[6-chloro-3-[(1,1-dioxothian-4-yl)amino]-4-quinolyl]amino]benzoic acid] is over 5 °C.
As to `O=C(O)c1ccccc1Nc1c(Nc2cncnc2)cnc2ccc(Cl)cc12` [Compound 191A, 2-[[6-chloro-3-(pyrimidin-5-ylamino)-4-quinolyl]amino]benzoic acid], the ΔTm at 100 µM is over 5 °C.
Consider `O=C(O)c1ccccc1Nc1c(C2CCOCC2)cnc2c1CCCC2` [Compound 204A-BP, 2-[(3-tetrahydropyran-4-yl-5,6,7,8-tetrahydroquinolin-4-yl)amino]benzoic acid], for which the shift in melting temperature (ΔTm) at 100 µM is over 5 °C.
For the compound `O=C(O)c1ccccc1Nc1c(C2CCC(F)(F)CC2)cnc2ccc(Cl)cc12` [Compound 205A, 2-[[6-chloro-3-(4,4-difluorocyclohexyl)-4-quinolyl]amino]benzoic acid], the thermal shift (ΔTm) at 100 µM is over 5 °C.
With `O=C(O)c1ccccc1Nc1c(C2CCNCC2)cnc2ccc(Cl)cc12` [Compound 206A, 2-[[6-chloro-3-(4-piperidyl)-4-quinolyl]amino]benzoic acid], the ΔTm at 100 µM was over 5 °C.
As for `O=C(O)c1ccccc1Nc1c(C2=CCNCC2)cnc2ccc(Cl)cc12` [Compound 206A-INT, 2-[[6-chloro-3-(1,2,3,6-tetrahydropyridin-4-yl)-4-quinolyl]amino]benzoic acid], the ΔTm at 100 µM is over 5 °C.
With `CN1CCC(c2cnc3ccc(Cl)cc3c2Nc2ccccc2C(=O)O)CC1` [Compound 207A, 2-[[6-chloro-3-(1-methyl-4-piperidyl)-4-quinolyl]amino]benzoic acid], the thermal shift (ΔTm) at 100 µM is over 5 °C.
Still for that read-out and setting: the figure for `CN1CC=C(c2cnc3ccc(Cl)cc3c2Nc2ccccc2C(=O)O)CC1` [Compound 207A-INT, 2-[[6-chloro-3-(1-methyl-3,6-dihydro-2H-pyridin-4-yl)-4-quinolyl]amino]benzoic acid] is over 5 °C.
In the case of `O=C(O)c1ccccc1Nc1c(C2CCS(=O)(=O)CC2)cnc2ccc(Cl)cc12` [Compound 208A, 2-[[6-chloro-3-(1,1-dioxothian-4-yl)-4-quinolyl]amino]benzoic acid], the ΔTm at 100 µM was over 5 °C.
Regarding `O=C(O)c1ccccc1Nc1c(C2=CCS(=O)(=O)CC2)cnc2ccc(Cl)cc12` [Compound 208A-INT, 2-[[6-chloro-3-(1,1-dioxo-3,6-dihydro-2H-thiopyran-4-yl)-4-quinolyl]amino]benzoic acid], the ΔTm at 100 µM is 1 to 5 °C.
With `O=C(O)c1ccccc1Nc1c(-c2ccncc2)cnc2ccc(Cl)cc12` [Compound 209A, 2-[[6-chloro-3-(4-pyridyl)-4-quinolyl]amino]benzoic acid], the ΔTm at 100 µM was over 5 °C.

Usually ΔTm stands for the shift of the melting midpoint relative to a reference.

Values taken from patent US20250026769A1, “PAPD5 INHIBITORS AND METHODS OF USE THEREOF” (The Children's Medical Center Corporation, priority 2021, published 2025).
